The record followed here is PMC7880554 (ACS chemical biology, 2016).

The assay addresses Culp1 (Rv1984c) (Mycobacterium tuberculosis, UniProt P9WP43). Conditions: band identified by mass spectrometry; transposon mutant control.

Sequence of Culp1 (Rv1984c) (P9WP43 33-217): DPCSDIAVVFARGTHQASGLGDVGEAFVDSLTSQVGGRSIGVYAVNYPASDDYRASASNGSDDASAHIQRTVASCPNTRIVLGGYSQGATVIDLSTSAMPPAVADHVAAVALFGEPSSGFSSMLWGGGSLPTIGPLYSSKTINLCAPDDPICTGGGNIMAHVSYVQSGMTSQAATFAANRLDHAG

For the compound `CCCCCCCC(=O)OCOc1ccc2c(c1)C(C)(C)C1=C(Cl)C(=O)C(Cl)=CC1=N2` [DDAO-7-OME], the “in-gel fluorogenic activity, native PAGE-resolved lysate” value is “DDAO-7-OME provided the clearest Mtb banding patterns in these complex lysates and revealed Culp1 activity”.
